Drawing on patent publication US20090221559A1 (priority 2005, published 2009), this text covers IC50 and EC50 for 32 molecules.

Each structure is given as a SMILES string. A value given as a limit tells only on which side of the number the result lay.

In test [1] the target is T1, HCV NS5B polymerase (His-tagged, C-terminal 21 amino acid deleted NS5B, HC-J4) (Hepatitis C virus genotype 1b, UniProt O92972).
T1 construct: The cDNA encoding NS5B amino acid 1-570 (HC-J4, genotype 1b); His tag (His6, from pET-21b) (C); made in house; host or cells: E. coli BL21 (DE3)
T1 sequence (O92972 2417-3000, looked up, stated change not applied): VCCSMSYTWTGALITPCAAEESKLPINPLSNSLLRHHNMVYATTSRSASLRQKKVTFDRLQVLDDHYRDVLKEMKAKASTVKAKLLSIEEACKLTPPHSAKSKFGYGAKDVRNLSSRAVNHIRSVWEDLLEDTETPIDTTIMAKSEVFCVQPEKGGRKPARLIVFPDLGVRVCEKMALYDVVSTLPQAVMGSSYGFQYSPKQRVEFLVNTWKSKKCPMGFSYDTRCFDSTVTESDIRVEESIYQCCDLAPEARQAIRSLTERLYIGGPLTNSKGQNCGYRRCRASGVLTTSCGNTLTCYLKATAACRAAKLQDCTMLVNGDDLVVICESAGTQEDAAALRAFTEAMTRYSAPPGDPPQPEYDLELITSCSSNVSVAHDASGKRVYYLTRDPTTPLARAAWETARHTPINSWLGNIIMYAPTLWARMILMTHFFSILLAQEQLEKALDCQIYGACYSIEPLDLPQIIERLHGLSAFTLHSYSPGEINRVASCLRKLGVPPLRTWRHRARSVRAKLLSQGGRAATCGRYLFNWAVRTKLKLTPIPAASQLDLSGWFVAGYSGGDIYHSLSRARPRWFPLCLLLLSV
Description: NS5b polymerase assay (biochemical RdRp assay, 3H-GTP incorporation, SPA beads). Further details: species or system HCV genotype 1b. The following applies: NS5B Polymerase Assay IC50 (μM). A digest of the protocol: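 3H-GTP incorporation into newly made RNA was captured on SPA beads added in EDTA after 2 h at 25 °C. Compounds in DMSO met preformed enzyme–template complex (200 nM truncated His-NS5B, HC-J4 1b; biotin-oligo(rG13)/poly(rC)) for 15 min at RT, then 600 nM GTP, 5 mM MgCl2, Tris pH 7.5 started polymerization.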

For test [2], the system named is HCV replicon RNA replication in Huh-7 luc/neo (Huh-Luc) cells. Description: HCV replicon assay (stable replicon cell reporter assay, luciferase read-out). Format: cell-based, HCV type 1b. The following applies: Hepatitis C virus, Huh-7, 72 h, read-out: Replicon Assay EC50 (μM), Huh-Luc cells, incubation of three days, luciferase activity. A digest of the protocol: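 Three-day compound exposure used Huh-Luc cells, which harbour an autonomously replicating genotype 1b NS3-NS5B replicon expressing luciferase and neo^R. Luciferase signal served as the replication read-out, and dose-response curves came from several concentrations per compound.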
(A replicon is a self-replicating genome or part of one, used to study replication in cells.)

In general, IC50 refers to the midpoint of a concentration-inhibition curve. The term EC50 denotes the concentration needed to bring the measured effect to its halfway point. Molecule `CC1(C)CC(=O)C2=C(C1)Nc1ccccc1NC2c1cc(Cl)c(OCc2ccccc2)c(Cl)c1` (stereo not shown) [compound 444, 11-[4-benzyloxy-3,5-dichlorophenyl]-3,3-dimethyl-2,3,4,5,10,11-hexahydro-1H-dibenzo[b,e][1,4]diazepin-1-one] gave an IC50 in test [1] of 33.2 µM. Further, the EC50 in test [2] came out at 4.45 µM.
Turning to `CC1(C)CC(=O)C2=C(C1)Nc1ccccc1NC2c1ccc(OCc2ccccc2)cc1OCc1ccccc1` (stereo not shown) [compound 445, 11-[2,4-dibenzyloxyphenyl]-3,3-dimethyl-2,3,4,5,10,11-hexahydro-1H-dibenzo[b,e][1,4]diazepin-1-one], in test [1], the IC50 is over 133 µM. Also, the EC50 in test [2] stood at 1.98 µM.
In turn, `CC1(C)CC(=O)C2=C(C1)Nc1ccccc1NC2c1cccc(Oc2ccccc2Br)c1` (stereo not shown) [compound 446, 11-[3-(2-bromophenoxy)phenyl]-3,3-dimethyl-2,3,4,5,10,11-hexahydro-1H-dibenzo[b,e][1,4]diazepin-1-one] returned an IC50 in test [1] of over 133 µM. For the same molecule, the EC50 in test [2] amounted to 4.12 µM.
In the case of `CC1(C)CC(=O)C2=C(C1)Nc1ccccc1NC2c1c(Cl)cc(OCc2ccccc2)cc1Cl` (stereo not shown) [compound 447, 11-(4-benzyloxy-2,6-dichlorophenyl)-3,3-dimethyl-2,3,4,5,10,11-hexahydro-1H-dibenzo[b,e][1,4]diazepin-1-one], the concentration for half-maximal inhibition (IC50) in test [1] was over 133 µM. The EC50 in test [2] stood at 2.52 µM.
In test [1], `CC1(C)CC(=O)C2=C(C1)Nc1ccccc1NC2c1ccc([N+](=O)[O-])cc1` (stereo not shown) [compound 448] displayed a concentration for half-maximal inhibition (IC50) of over 133 µM. Besides, the EC50 in test [2] is over 100 µM.
In the case of `Cc1cc2c(cc1C)NC(c1ccc(Cl)c([N+](=O)[O-])c1)C1=C(CC(C)(C)CC1=O)N2` (stereo not shown) [compound 452], in test [1], the IC50 is over 42.7 µM. For the same molecule, the EC50 in test [2] is 19.7 µM.
For the molecule `COc1ccc(C2Nc3ccc(C(=O)c4ccccc4)cc3NC3=C2C(=O)CC(C)(C)C3)cc1OC` (stereo not shown) [compound 453], the IC50 in test [1] is over 42.7 µM. Also, in test [2], the EC50 was found to be 19.2 µM.
In test [1], `Cc1cc2c(cc1C)NC(c1c(F)cccc1F)C1=C(CC(C)(C)CC1=O)N2` (stereo not shown) [compound 454] gave an IC50 of over 42.7 µM. For the same molecule, in test [2], the EC50 amounted to 3.44 µM.
The matching figures for `CC1(C)CC(=O)C2=C(C1)Nc1cc(C(=O)c3ccccc3)ccc1NC2c1ccccc1Cl` (stereo not shown) [compound 463]: over 33.3 µM and 7.43 µM.
As for `Cc1cc2c(cc1C)NC(c1ccc(Cl)cc1Cl)C1=C(CC(C)(C)CC1=O)N2` (stereo not shown) [compound 464, 11-(2,4-Dichlorophenyl)-2,3,4,5,10,11-hexahydro-3,3,7,8-tetramethyl-1H-dibenzo[b,e][1,4]diazepin-1-one], the IC50 in test [1] was over 133 µM. Moreover, the EC50 in test [2] is 82.7 µM.
In test [1], `CC1(C)CC(=O)C2=C(C1)Nc1cc(Cl)c(Cl)cc1NC2c1ccc(Cl)cc1Cl` (stereo not shown) [compound 465, 7,8-Dichloro-11-(2,4-dichlorophenyl)-2,3,4,5,10,11-hexahydro-3,3-dimethyl-1H-dibenzo[b,e][1,4]diazepin-1-one] registered an IC50 of 60 µM. For the same molecule, in test [2], the EC50 was 3.84 µM.
In the case of `CC1(C)CC(=O)C2=C(C1)Nc1cc(F)c(F)cc1NC2c1ccc(Cl)cc1Cl` (stereo not shown) [compound 466, 7,8-difluoro-11-(2,4-dichlorophenyl)-3,3-dimethyl-2,3,4,5,10,11-hexahydro-1H-dibenzo[b,e][1,4]diazepin-1-one], half-maximal inhibition in test [1] (IC50) required 68.1 µM. For the same molecule, the 50% effective concentration (EC50) in test [2] amounted to 6.81 µM.
Taken in the same sequence, the figures for `COc1cc2c(cc1OC)NC(c1ccc(Cl)cc1Cl)C1=C(CC(C)(C)CC1=O)N2` (stereo not shown) [compound 467, 7,8-dimethoxy-11-(2,4-dichlorophenyl)-3,3-dimethyl-2,3,4,5,10,11-hexahydro-1H-dibenzo[b,e][1,4]diazepin-1-one] were over 133 µM and 30 µM.
For the molecule `CC1(C)CC(=O)C2=C(C1)Nc1ccc(C#N)cc1NC2c1ccc(Cl)cc1Cl` (stereo not shown) [compound 473], in test [1], the midpoint of inhibition, the IC50, lay at 50 µM. Besides, in test [2], the EC50 was 20 µM.
`O=C1C[C@@H](c2ccc3c(c2)OCO3)CC2=C1[C@H](c1cccnc1)Nc1ccccc1N2` [compound 476] gave an IC50 in test [1] of over 42.7 µM. In addition, the EC50 in test [2] was 22.9 µM.
Take `CCn1c2ccccc2c2cc([C@@H]3Nc4ccccc4NC4=C3C(=O)C[C@@H](c3ccc(OC)c(OC)c3)C4)ccc21` [compound 477]: the IC50 in test [1] is over 42.7 µM. Also, the EC50 in test [2] was determined as 4.49 µM.
For the molecule `CCn1c2ccccc2c2cc([C@@H]3Nc4ccccc4NC4=C3C(=O)C[C@@H](c3ccc(Cl)cc3)C4)ccc21` [compound 480], the IC50 in test [1] was over 42.7 µM. In addition, in test [2], the EC50 turned out to be 5.7 µM.
In the case of `O=C1C[C@@H](c2ccccc2)CC2=C1[C@H](c1cc3c(cc1Br)OCO3)Nc1ccccc1N2` [compound 481], the IC50 in test [1] is over 42.7 µM. For the same molecule, the EC50 in test [2] is 1.61 µM.
For `O=C1C[C@@H](c2ccc(Cl)cc2)CC2=C1[C@H](c1c[nH]c3ccccc13)Nc1ccccc1N2` [compound 482], the IC50 in test [1] was over 42.7 µM. Also, in test [2], the EC50 was determined as 27 µM.
The matching figures for `O=C1C[C@@H](c2ccc(Cl)cc2)CC2=C1[C@H](c1cccnc1)Nc1ccccc1N2` [compound 483]: over 42.7 µM and 15.5 µM.
In test [1], `CCn1c2ccccc2c2cc([C@@H]3Nc4ccccc4NC4=C3C(=O)C[C@@H](c3ccccc3)C4)ccc21` [compound 484] showed an IC50 of over 42.7 µM. In test [2], the EC50 is 6.65 µM.
Consider `COc1ccc([C@@H]2CC(=O)C3=C(C2)Nc2ccccc2N[C@H]3c2cc3c(cc2[N+](=O)[O-])OCO3)cc1` [compound 485], for which the IC50 in test [1] was over 42.7 µM. In addition, in test [2], the EC50 came out at 3.39 µM.
The molecule `COc1ccc([C@@H]2CC(=O)C3=C(C2)Nc2ccccc2N[C@H]3c2cc3c(cc2Br)OCO3)cc1` [compound 486] returned an IC50 in test [1] of over 42.7 µM. The EC50 in test [2] was 3.31 µM.
The matching figures for `COc1ccc([C@@H]2CC(=O)C3=C(C2)Nc2ccccc2N[C@H]3c2cc3c(cc2[N+](=O)[O-])OCO3)cc1OC` [compound 487]: over 42.7 µM and 3.15 µM.
As to `O=C1C[C@@H](c2ccccc2)CC2=C1[C@H](c1coc3ccccc3c1=O)Nc1ccccc1N2` [compound 488], the IC50 in test [1] was over 42.7 µM. In test [2], the EC50 was 17.8 µM.
`COc1ccc([C@@H]2CC(=O)C3=C(C2)Nc2ccccc2N[C@H]3c2c[nH]c3ccccc23)cc1` [compound 489]: the IC50 in test [1] was over 42.7 µM. In test [2], the EC50 worked out at 5.91 µM.
The matching figures for `COc1ccc([C@@H]2CC(=O)C3=C(C2)Nc2ccccc2N[C@H]3c2ccc(C)s2)cc1` [compound 490]: over 42.7 µM and 24.9 µM.
`O=C1C[C@@H](c2ccccc2)CC2=C1[C@H](c1ccc3c(c1)OCO3)Nc1ccc(C(=O)c3ccccc3)cc1N2` [compound 491] showed an IC50 in test [1] of over 42.7 µM. In test [2], the EC50 is 12.1 µM.
In turn, `O=C1C[C@@H](c2ccc3c(c2)OCO3)CC2=C1[C@H](c1ccc3c(c1)OCO3)Nc1ccccc1N2` [compound 492] displayed an IC50 in test [1] of over 42.7 µM. Moreover, in test [2], the EC50 is 11 µM.
For `O=C1C[C@@H](c2ccc3c(c2)OCO3)CC2=C1[C@H](c1cc3c(cc1Br)OCO3)Nc1ccccc1N2` [compound 493], the IC50 in test [1] is over 42.7 µM. Further, in test [2], the EC50 is 1.3 µM.
As to `COc1ccc([C@@H]2CC(=O)C3=C(C2)Nc2ccccc2N[C@H]3c2ccc3c(c2)OCO3)cc1OC` [compound 494], the IC50 in test [1] was over 42.7 µM. The EC50 in test [2] stood at 21.7 µM.
`COc1ccc([C@@H]2CC(=O)C3=C(C2)Nc2ccccc2N[C@H]3c2coc3ccccc3c2=O)cc1OC` [compound 495] registered a half-maximal inhibitory concentration (IC50) in test [1] of over 42.7 µM. Moreover, the EC50 in test [2] came to 3.69 µM.
